Laboratory results reported in patent publication US9468670B2, “Melatonin-based treatment and diagnosis of bile duct disease” (Texas A&M University System, priority 2011, dated 2016).
Marks after values point to notes of the source that are not given here.

Legend:
[1] = target: T1, AANAT (Rattus norvegicus, UniProt Q64666); experiment: Melatonin levels in serum and cholangiocyte supernatant (ELISA) of Morpholino-treated rats; assay type: in vivo; settings: normal rats
T1 construct: the expression of AANAT in liver sections and cholangiocytes from the selected groups of animals; from tissue; host or cells: Male Fischer 344 rats: liver sections, total liver, isolated cholangiocytes, pineal gland, small intestine, serum
Method: In separate experiments, normal rats treated with Vivo-Morpholino sequences of AANAT (5'-[…] NO:1), to reduce the biliary expression of AANAT) or Morpholino mismatched (5'-[…] NO:2)) (Gene Tools LCC) (1 mg/Kg BW/day) for 1 week via an implanted portal vein catheter. Serum, liver tissue, cholangiocytes, kidney, spleen, small intestine, stomach and heart were collected. Since our goal was to knock-down AANAT expression in the liver without inhibiting AANAT expression in other organs, we used a lower dose (1 mg/Kg/day) of Vivo-Morpholino than that described in the original study (3.0 mg/kg/day (Arora et al., 2002). This approach minimizes the amount of Vivo-Morpholino that circulates outside of the liver after slow infusion into the portal vein. See below for the surgical procedure for the implantation of the portal vein catheter by which AANAT Vivo-Morpholino or Morpholino mismatched was administered. Melatonin levels in serum and medium of primary cultures of isolated cholangiocytes were determined by ELISA kits (Genway, San Diego, Calif.). Supernatants were obtained from cholangiocytes (1×10^7 cells/ml) that were incubated for 6 hours at 37° C. (Glaser et al., 2008).

[2] = tested on: AANAT; experiment: Expression of AANAT in liver sections, cholangiocytes, pineal gland and small intestine (immunohistochemistry, real-time PCR); assay type: in vivo, rat
Method: Male Fischer 344 rats (150-175 gm) were purchased from Charles River Laboratories (Wilmington, Mass.) and housed at 22° C. with 12:12 hr light/dark cycles. The animals had free access to standard chow and drinking water. […] Animal experiments were performed in accordance with a protocol approved by the Scott & White and Texas A&M Health Science Center IACUC. In separate experiments, normal rats treated with Vivo-Morpholino sequences of AANAT (5'-[…] NO:1), to reduce the biliary expression of AANAT) or Morpholino mismatched (5'-[…] NO:2)) (Gene Tools LCC) (1 mg/Kg BW/day) for 1 week via an implanted portal vein catheter. Serum, liver tissue, cholangiocytes, kidney, spleen, small intestine, stomach and heart were collected. Since our goal was to knock-down AANAT expression in the liver without inhibiting AANAT expression in other organs, we used a lower dose (1 mg/Kg/day) of Vivo-Morpholino than that described in the original study (3.0 mg/kg/day (Arora et al., 2002). This approach minimizes the amount of Vivo-Morpholino that circulates outside of the liver after slow infusion into the portal vein. See below for the surgical procedure for the implantation of the portal vein catheter by which AANAT Vivo-Morpholino or Morpholino mismatched was administered. The following was evaluated: (i) the expression of AANAT in liver sections and cholangiocytes from the selected groups of animals; and (ii) the effectiveness of the AANAT Vivo-Morpholino in lowering the expression of AANAT in cholangiocytes was determined. […] Data were expressed as relative mRNA levels ±SEM of the selected gene to glyceraldehyde-3-phosphate dehydrogenase (GAPDH) ratio. […]

[3] = Liver and body weight of nude mice bearing Mz-ChA-1 tumors; assay type: in vivo, nude (nu/nu) mice; settings: 4 mg/kg BW IP three times a week
Method: Experiments were performed to evaluate the in vivo effect of melatonin on the growth of cholangiocarcinoma cell lines implanted in the flanks of athymic mice (Francis H et al., 2009). Male BALB/c 6-wk-old nude (nu/nu) mice (Taconic Farms. Hudson, N.Y.) were kept in a temperature-controlled environment (20-22° C.) with 12-hr light-dark cycles, fed ad libitum standard mouse chow, and with free access to drinking water. Mz-ChA-1 cells (5×10^6) were suspended in 0.2 ml of extracellular matrix gel and injected subcutaneously in the rear flanks of the nude mice. After the establishment of the tumor (one week with a tumor size of ˜5 mm^3) mice (n=4) were treated with vehicle (5% ethanol in water) or melatonin (4 mg/kg BW, dissolved in 5% aqueous ethanol solution) (Sewerynek et al., 1995) by IP injections three times a week. Tumor variables were measured three times a week by an electronic caliper, and volume was determined as follows: tumor volume (mm^3)=0.5×[length (mm)×width (mm)×height (mm)]. The measurements started from the first week when the tumor mass was established. After 43 days of treatment, were anesthetized with sodium pentobarbital (50 mg/kg BW IP) and tumor tissues were harvested from the flanks of the mice. Heart, liver, and kidney tissues were collected for evaluation of organ damage by H&E staining of paraffin-embedded sections ([…]). All experiments were conducted under the guidelines of the Scott & White and Texas A&M HSC IACUC Committee. Tumors were allowed to grow until maximum allowable tumor burden was reached as set forth by the Scott & White and Texas A&M HSC IACUC tumor burden policy. Tumor tissues were fixed for 4 hr in 10% buffered formalin and embedded in low-temperature fusion paraffin. […] Semiquantitative analysis for these markers was evaluated by image-analysis software, Image-Pro Plus (Media Cybernetics, Silver Springs, Md.) (Lejeune et al., 2008). Three randomly chosen fields were calculated for statistics.

[4] = normal rats, 1 mg/Kg BW/day 1 week vs. controls

T1 sequence (Q64666 whole entry): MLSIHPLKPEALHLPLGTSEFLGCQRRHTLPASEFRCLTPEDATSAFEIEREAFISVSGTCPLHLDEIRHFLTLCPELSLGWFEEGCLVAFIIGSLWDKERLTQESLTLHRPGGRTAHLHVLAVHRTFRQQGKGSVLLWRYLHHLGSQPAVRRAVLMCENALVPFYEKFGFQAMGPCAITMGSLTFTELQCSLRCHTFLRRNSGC

| Compound | Melatonin supernatant ([1]; cholangiocyte supernatant, 6 hours at 37° C., 1 mg/Kg BW/day for 1 week) | Melatonin serum ([1]; 1 mg/Kg BW/day for 1 week via portal vein catheter) | AANAT biliary expression [2, 4] | AANAT mRNA levels in pineal gland and small intestine [2, 4] | Body weight [3] | Liver to body [3] | Liver weight [3] | Expression of AANAT in bile ducts ([2]; BDL rats treated with melatonin (20 mg/L in tap water) 1 week) |
| --- | --- | --- | --- | --- | --- | --- | --- | --- |
| AANAT Vivo-Morpholino: Vivo-Morpholino sequence of AANAT 5′-GTTCCCCAGCTTTGGAAGTGGTCCC (SEQ ID NO:1), to reduce the biliary expression of AANAT (all phosphorodiamidate morpholino (PMO); Vivo-Morpholino delivery moiety attached, position not given here, further chemistry not fully specified) | 3.2 ± 0.2^a pg/ml | 58.4 ± 8.7^a pg/ml | reduced | increased |  |  |  |  |
| COc1ccc2[nH]cc(CCNC(C)=O)c2c1 [melatonin] |  |  |  |  | 35.25 ± 0.73 gm | 8.01% ± 0.21 | 2.82 ± 0.13 gm | increased |
